The text below walks through data of article PMC10568017, “A quest for the stereo-electronic requirements for selective agonism for the neurotrophin receptors TrkA and TrkB in 17-spirocyclic-dehydroepiandrosterone derivatives” (Frontiers in Molecular Neuroscience, 2023).

The conditions of data set [1]: murine models; ref Bennett et al., 2016; Tsika et al., 2021; cited from earlier work.
The target in data set [2] is T1, CYP2C9 (Homo sapiens, UniProt P11712).
T1 construct: purchased Thermo Fisher Scientific; host or cells: Baculosomes
The data set is described as follows: Isozyme-specific CYP450 inhibition, CYP2C9. The data set is classed as in vitro ADME. The note with it: 1 μM, 60 min, recombinant human CYP450 (Baculosomes). As to the method: Human cytochrome P450 (CYP450) isoenzymes were expressed in Baculosomes®, purchased from Thermo Fisher Scientific (Waltham, MA, USA). All reagents were handled and prepared according to the manufacturer's protocol. Test compounds were assessed at 1 μM for their effects on CYP1A2, CYP2A6, CYP2C9, CYP2C19, CYP2D6, and CYP3A4. Approximately 1 μM was selected based on our ADMET standard operating procedures and protocols also published previously (Rogdakis et al., [2022]; Yilmaz et al., [2022]). CYP450-enzymatic activity was determined based on the kinetic model for each CYP450 isoform (Cohen et al., [2003]; Veith et al., [2009]). Reactions took place in triplicates at 20°C. For this, NADP^+ (10 mM in 100 mM potassium phosphate, pH 8.0) was converted into NADPH by the regeneration system present (glucose-6-phosphate at 333 mM and glucose-6-phosphate-dehydrogenase at 30 U/mL in 100 mM potassium phosphate, pH 8.0). Following the addition of the fluorescent substrate, signal monitoring over time took place immediately (<2 min) at suitable excitation and emission wavelengths (Agilent BioTek Lionheart FX). CYP450 inhibition (%) was determined based on the reaction rates (fluorescence intensity changes per unit time). In total, n = 60 measurements […] were acquired (t = 60 min).
% Inhibition=(1-X/A)×100%
X is the rate observed in the presence of the test compound.
A is the rate observed in the presence of the negative (solvent, DMSO) control.

The target of data set [3] is T2, TrkB (Mus musculus, UniProt P15209).
T2 construct: primary cortical astrocytes from 2-day-old mice (as a natively TrkB-expressing neuronal population); endogenous in cells; host or cells: primary cortical astrocytes from C57B/6 mouse pups (P2)
The data set is described as follows: TrkB phosphorylation assay in primary astrocytes (Western blot). The data set is classed as cell-based. The following applies: compound 1 μM, 20 min, after 6 h serum starvation, BDNF 500 ng/mL as control. As to the method: (§1) We tested compounds on three cellular systems, primary cortical astrocytes from 2-day-old mice (as a natively TrkB-expressing neuronal population), and NIH-3T3 fibroblasts stable transfected with TrkB and NIH-3T3 naïve cells. Cells were grown with high-glucose DMEM medium supplemented with 10% fetal bovine serum (FBS), 100 μg/mL streptomycin, and 100 units/mL penicillin at 37°C in a humidified 5% CO2 atmosphere. Phosphorylation results presented here are in primary astrocytes, and cell toxicity assay results are in NIH-3T3 stable transfected cells with TrkB.
Cells were plated in 12 well plates, at a density of 100,000 cells per well, with 6 h of serum deprivation carried out on the following day. To assess the effect of compounds on TrkB phosphorylation, 20-min treatments were applied, using either BDNF at 500 ng/mL (Peprotech 450-02) (positive control) or compounds at 1 μM.
Cell lysis for 10 min was carried out on ice using the Pierce IP Lysis Buffer by Thermo Scientific and a phospho-protease inhibitor cocktail by Millipore. After adding loading buffer (5 × Laemni), 25 μg from each protein sample were incubated for 5 min at 95°C and subjected to SDS-PAGE. Proteins were transferred to a nitrocellulose membrane at 350 mA for 2 h. Membrane blocking was performed using 5% bovine serum albumin (BSA) at room temperature for 1 h, before adding the primary antibodies to the blocking solution at 4°C overnight. HRP-conjugated secondary antibodies were used for the detection of chemiluminescence with ECL solution. Primary antibodies: Phospho-TrkB (Tyr816) Millipore # ABN1381, and Anti-TrkB Abcam #ab33655.
Mixed glial cultures were isolated from the cortex of C57B/6 pups at post-natal day 2 (P2). Cells were plated in a medium containing high-glucose DMEM, 200 U/mL penicillin, 200 μg/mL streptomycin, and 10% fetal bovine serum (FBS). When cells reach 100% confluency (7–8 days), the anti-mitotic agent Ara-C was added in the media at a final concentration of 10 μM, for 3 to 4 days to target the highly proliferative microglial cells. Ara-C was removed, and primary astrocytes (97% purity) were cultured at 5% CO2 and 37°C.
Cells were plated at 70–80% confluency. The next day, they were deprived of serum for 6 h and subsequently treated with 500 ng/mL BDNF or 1 μM of compounds for 20 min. Cells were then lysed in Pierce™ IP Lysis Buffer (87788, Thermo Fischer Scientific, Rockford, USA), containing proteases (539138, Calbiochem, Darmstadt, Germany), and phosphatase inhibitors (524629, Calbiochem, Darmstadt, Germany). Lysates were then suspended in an SDS loading buffer and subjected to Western blot against phosphorylated TrkB (1:1,000, ABN1381, Sigma-Aldrich, St. Louis, MO, USA) and total TrkB (1:1,000, 07-225-I, Sigma-Aldrich, St. Louis, MO, USA).

The subject of data set [4] is NIH-3T3 TrkB-expressing cell line. The data set is described as follows: CellTox Green cytotoxicity assay in NIH-3T3 cells stable transfected with TrkB under serum deprivation. The data set is classed as cell-based. The note with it: compound 1 μM, 24 h, after 24 h serum starvation; BDNF 500 ng/mL as control. The procedure: as §1
NIH-3T3 stable transfected cells with TrkB were plated in 96-well plates at a density of 10,000 cells/well, before carrying out serum starvation for 24 h. Cells were then treated for 24 h with either BDNF at 500 ng/mL (control) or the compounds at 1 μM.
For the cell toxicity assay, we used CellTox™ Green Dye (2,000 × , Promega) for the visualization of dead cells and Hoechst 33,342 solution (10,000 × ) for total cells. A ZEISS Axio Vert.A1 microscope was used for image capture, and the ImageJ software (https://imagej.nih.gov/ij/) was used for analysis. The number of CellTox positive cells was normalized against the total number of cells observed in each image.
The NIH-3T3 TrkB cell line, which is stable and transfected to specifically express the TrkB receptor, was used for the screening of the new compounds for their ability to protect cells from serum deprivation-induced apoptosis through the activation of the TrkB receptor. Cell death was induced by serum deprivation for 24 h and then BDNF (500 ng/mL), the native neurotrophin ligand of the TrkB receptor, or compounds ENT-A007, ENT-A009, ENTA025, ENT-A026, ENT-A033, ENT-A034, ENT-A035, ENT-A036, ENT-A037, ENT-A046, ENT-A047, ENT-A055, and ENT-A056 (1 μM) were added to the media for 24 h.

Data set [5] can be described thus: Metabolic stability in pooled human liver microsomes. The note with it: 1 μM. The class given is in vitro ADME. As to the method:
For metabolic stability assessment, pooled human liver microsomes were employed at 0.5 mg/mL. Incubation conditions were optimized to ensure linear metabolite formation with respect to protein concentration and reaction time. All test compounds were assessed at 1 μM based on our ADMET standard operating procedures and protocols, also published previously (1 μM was selected based on our ADMET standard operating procedures and protocols also published previously) (Rogdakis et al., [2022]; Yilmaz et al., [2022]). Approximately 1 mM of NADPH served as a cofactor. Reactions took place in triplicates at 37°C. Negative and positive controls (low vs. rapid clearance) were included for low vs. rapid clearance. After 60 min, reactions were terminated.
Parent structure loss is classified as very slow (<5%), slow (5–19%), moderate (20–50%), fast (50–80%), or very fast (>80%). Such categories have been defined according to set criteria, namely, high metabolism (t1/2 value of <30 min), moderate metabolism (30 min <t1/2 value of <60 min), and low metabolism (t1/2 value of >60 min) (EMA, [2012], [2013]; FDA, [2020]).

Data set [6] addresses T3, TrkA (Rattus norvegicus, UniProt P35739).
T3 construct: PC12 cells, which express receptors TrkA and p75; endogenous in cells; host or cells: PC12 cells
The data set can be described thus: TrkA phosphorylation in PC12 cells (immunoprecipitation / Western blot). The class given is cell-based. The note with it: compound 500 nM, 30 min, NGF 100 ng/mL as control. The procedure:
PC12 cells were obtained from LGC Promochem and cultured under specified conditions. Cells were grown in DMEM medium (Thermo Fischer Scientific, cat# 10566016) containing 10% horse serum (Thermo Fischer Scientific, cat# 16050122), 5% fetal bovine serum (Thermo Fischer Scientific, cat# 10270106), 100 units/mL penicillin, and 0.1 mg/mL streptomycin (Thermo Fischer Scientific, cat# 15140122) at 5% CO2 and 37°C. Cells were used between passages 5 and 20.
For immunoprecipitation experiments, PC12 cells were used when they were at 70–80% confluent. Cells were starved from serum for 4 h and subsequently treated with 100 ng/mL NGF (Alomone Labs, cat# N-100) or 500 nM of each compound for 30 min. Cells were then lysed in Pierce™ IP Lysis Buffer (Thermo Fischer Scientific, cat# 87787) containing proteases (Sigma-Aldrich, cat# 539131) and phosphatase inhibitors (Millipore, cat# 524629). Lysates were then immunoprecipitated overnight at 4°C with TrkA antibody (1:100, Millipore, cat# 06-574) followed by 4 h incubation with protein G-plus agarose beads (Santa Cruz Biotechnology, cat# sc-2002). Beads were then collected, washed three times with lysis buffer, resuspended in SDS loading buffer, and subjected to Western blot against phosphorylated Tyrosine (1:1000, R&D systems, cat# BAM1676). […]

Data set [7] has as its system PC12 cells. The data set is described as follows: CellTox assay, survival of PC12 cells under serum deprivation. The data set is classed as cell-based. The following applies: compound 500 nM, 24 h, after 4 h serum starvation; NGF 100 ng/mL as control (Figure 9).
For data set [8], the system named is Erk1/2. The data set is described as follows: Erk1/2 phosphorylation in PC12 cells (Western blot). The data set is classed as cell-based. The following applies: compound 500 nM, 30 min, NGF 100 ng/mL as control.

T1 sequence (P11712 whole entry): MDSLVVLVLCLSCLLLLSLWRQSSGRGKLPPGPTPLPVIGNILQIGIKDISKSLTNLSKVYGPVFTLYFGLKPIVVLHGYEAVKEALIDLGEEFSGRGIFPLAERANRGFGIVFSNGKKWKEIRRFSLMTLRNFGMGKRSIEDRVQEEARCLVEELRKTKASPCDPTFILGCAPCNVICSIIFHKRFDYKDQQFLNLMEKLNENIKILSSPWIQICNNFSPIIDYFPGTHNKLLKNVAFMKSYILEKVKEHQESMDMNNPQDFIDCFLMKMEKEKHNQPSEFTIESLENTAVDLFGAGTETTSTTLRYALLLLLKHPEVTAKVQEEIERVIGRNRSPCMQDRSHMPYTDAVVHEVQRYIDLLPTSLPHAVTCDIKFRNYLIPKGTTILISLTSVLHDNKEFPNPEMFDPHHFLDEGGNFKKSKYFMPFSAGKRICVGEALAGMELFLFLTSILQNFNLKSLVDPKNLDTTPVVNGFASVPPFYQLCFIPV
T2 sequence (P15209 32-821): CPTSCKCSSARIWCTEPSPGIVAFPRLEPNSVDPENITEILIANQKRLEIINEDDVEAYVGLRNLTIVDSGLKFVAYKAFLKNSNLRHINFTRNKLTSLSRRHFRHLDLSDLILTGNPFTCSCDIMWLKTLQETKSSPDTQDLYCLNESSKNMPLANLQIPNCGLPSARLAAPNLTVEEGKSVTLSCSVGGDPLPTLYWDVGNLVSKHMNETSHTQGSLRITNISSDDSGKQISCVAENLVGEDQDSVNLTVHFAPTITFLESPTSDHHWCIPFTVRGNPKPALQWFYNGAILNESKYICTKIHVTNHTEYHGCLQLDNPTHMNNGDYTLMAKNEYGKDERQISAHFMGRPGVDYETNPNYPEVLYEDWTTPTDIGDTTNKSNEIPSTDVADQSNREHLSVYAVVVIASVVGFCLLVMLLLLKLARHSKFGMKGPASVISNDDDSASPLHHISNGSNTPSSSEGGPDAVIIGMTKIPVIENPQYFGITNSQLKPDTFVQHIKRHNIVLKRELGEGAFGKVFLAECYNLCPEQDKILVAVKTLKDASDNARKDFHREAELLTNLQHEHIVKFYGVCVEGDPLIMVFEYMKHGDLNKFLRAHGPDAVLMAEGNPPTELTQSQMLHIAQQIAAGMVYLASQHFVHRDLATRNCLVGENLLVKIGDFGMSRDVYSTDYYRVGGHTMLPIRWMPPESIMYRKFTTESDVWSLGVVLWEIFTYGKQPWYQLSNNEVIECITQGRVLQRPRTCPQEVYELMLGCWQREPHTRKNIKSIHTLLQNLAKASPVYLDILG
T3 sequence (P35739 33-799): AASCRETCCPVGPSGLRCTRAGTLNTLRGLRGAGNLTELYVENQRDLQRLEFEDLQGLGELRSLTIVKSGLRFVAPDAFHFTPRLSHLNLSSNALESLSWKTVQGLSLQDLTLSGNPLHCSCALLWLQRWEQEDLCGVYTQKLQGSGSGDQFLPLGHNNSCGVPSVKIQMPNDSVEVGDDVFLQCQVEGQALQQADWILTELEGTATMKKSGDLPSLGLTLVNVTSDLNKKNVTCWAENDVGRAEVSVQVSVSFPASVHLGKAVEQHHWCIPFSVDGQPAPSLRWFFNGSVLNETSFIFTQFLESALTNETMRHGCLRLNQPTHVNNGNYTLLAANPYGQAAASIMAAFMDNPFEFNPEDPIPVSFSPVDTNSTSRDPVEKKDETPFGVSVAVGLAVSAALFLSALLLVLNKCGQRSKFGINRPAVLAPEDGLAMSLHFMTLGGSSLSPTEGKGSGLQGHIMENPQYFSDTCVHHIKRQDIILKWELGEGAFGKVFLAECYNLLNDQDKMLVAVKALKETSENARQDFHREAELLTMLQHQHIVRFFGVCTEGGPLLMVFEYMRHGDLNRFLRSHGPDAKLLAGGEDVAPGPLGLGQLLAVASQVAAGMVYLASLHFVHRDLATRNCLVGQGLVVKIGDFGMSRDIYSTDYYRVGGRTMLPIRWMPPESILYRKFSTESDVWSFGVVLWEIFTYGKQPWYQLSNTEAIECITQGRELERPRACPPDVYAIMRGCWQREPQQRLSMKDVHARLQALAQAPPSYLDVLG

`CC12CCC(O)CC1=CCC1C2CCC2(C)C1CCC21OC1CO` (stereo not shown) [BNN27]: the “elimination constant (Kel)” value in data set [1] is 0.465 h⁻¹.

For the compound `CC12CCC(O)CC1=CCC1C2CCC2(C)C1CCC21CC=C(C=CC#N)CO1` [ENT-A009, (E)-(3S,17R)-3-hydroxy-3′,6′-dihydrospiro[5-androstene-17,2′-pyran]-5′-acrylonitrile], in data set [2], the “inhibition for CYP2C9” value is recorded as “moderate-to-strong inhibition”. The “phosphorylation levels of the TrkB receptor” value in data set [3] is listed as “successfully increased phosphorylation levels of the TrkB receptor compared to the untreated control”. The “protection of NIH-3T3-TrkB cells from serum deprivation-induced cell death (CellTox)” value (shortened to “protection of NIH-3T3-TrkB cells”) in data set [4] is “significantly reduce cell death levels compared to the serum-free control, comparable to the BDNF action”.

Regarding `CC12CCC(O)CC1=CCC1C2CCC2(C)C1CCC21CC=C(CCl)CO1` [ENT-A025, (3S,17R)-5′-(chloromethyl)-3′,6′-dihydrospiro[5-androstene-17,2′-pyran]-3-ol], in data set [5] (pooled human liver microsomes 0.5 mg/mL, t = 60 min, NADPH), the “residual of time zero” value stood at 92%. For the same compound, the “parent structure loss (depletion) class” value in data set [5] (pooled human liver microsomes, 60 min) is “slow (slow (5–19%))”. Moreover, the TrkA phosphorylation result in data set [6] is “strongly induce TrkA and Erk1/2 phosphorylation, comparable to NGF action”. For the same compound, in data set [7], the “protection of PC12 cells from serum deprivation-induced cell death (CellTox)” value was “protect PC12 cells against serum deprivation-induced cell death”. The Erk1/2 phosphorylation result in data set [8] was “strongly induce TrkA and Erk1/2 phosphorylation, comparable to NGF action”. Also, the “protection of NIH-3T3-TrkB cells” value in data set [4] is reported as “cannot protect NIH3T3-TrkB cells from serum deprivation”.

Take `CCOC(=O)C=CC1=CCC2(CCC3C4CC=C5CC(O)CCC5(C)C4CCC32C)OC1` [ENT-A007, Ethyl (E)-(3S,17R)-3-hydroxy-dihydrospiro[5-androstene-17,2′-pyran]-5′-yl-acrylate]: in data set [2], the “inhibition for CYP2C9” value is reported as “moderate-to-strong inhibition”. The “phosphorylation levels of the TrkB receptor” value in data set [3] is “only ENT-A009 and ENT-A055 successfully increased phosphorylation levels of the TrkB receptor”. In addition, in data set [4], the “protection of NIH-3T3-TrkB cells” value is on record as “significantly reduce cell death levels compared to the serum-free control, comparable to the BDNF action”.
